Earlier results as cited in patent US20070160542A1, “Methods and systems for the delivery of corticosteroids having an enhanced pharmacokinetic profile” (Verus Pharmaceuticals, Inc., priority 2005, published 2007).

solubility in alcohols: readily soluble
solubility in water: virtually insoluble
Structure (SMILES): CCCC1O[C@@H]2C[C@H]3[C@@H]4CCC5=CC(=O)C=C[C@]5(C)[C@H]4[C@@H](O)C[C@]3(C)[C@]2(C(=O)CO)O1 (stereo partly drawn) [budesonide, (R,S)-11β,16α,17,21-tetrahydroxypregna-1,4-diene-3,20-dione cyclic 16,17-acetal with butyraldehyde]
